“Also recorded” adds a separate entry of the source.
Key:
[1] = more stable than cysteine; cited from earlier work
[2] = system: human neutrophil elastase (HNE); experiment: Phase 2 trial: sputum HNE enzymatic activity; assay type: in vivo
Description: (§1) Summary. Based on the success of the phase I trial, the trial proceeded to phase II. This single-center trial consisted of a 12-week placebo-controlled section followed by a 12-week open label section, with oral NAC 0.9 g, taken three times daily. The statistical plan for the study was designed to assess the safety and efficacy of NAC versus placebo, at 0 week and 12-week timepoints (placebo-controlled section). Of the 24 subjects screened for eligibility, 21 were enrolled and randomized into NAC and placebo groups. One subject asked to be withdrawn from the prior to the 6 week time point because the medication regimen was too onerous. […] Two other subjects also were removed from participation in the study by the principal investigator due to poor adherence to the study protocol. […] Thus, 18 subjects are included in this intent-to-treat (ITT) analysis (9 on NAC and 9 on placebo).
(§2) Intention-to-treat analysis of efficacy endpoints. Besides the necessary assessment of the safety of high-dose oral NAC in a placebo-controlled setting, this phase 2 trial also was designed to gain a better understanding of treatment efficacy with regards to improving inflammation, redox imbalance and lung function in CF, albeit within the limits inherent to a small study. […] The primary efficacy endpoint in this phase 2 study is sputum neutrophil count (based on the quantification of live neutrophils by microscopy, reflecting lung inflammation) and the four secondary efficacy endpoints are: (i) FEV1 (% Pred), reflecting lung function; (ii) blood neutrophil GSH, reflecting systemic redox imbalance; (iii) sputum HNE activity, reflecting lung inflammation, the current best predictor of CF lung disease; and (iv) whole blood GSH, reflecting systemic redox imbalance. […]
(§3) These various markers of inflammation were measured independently with different methodologies (e.g., microscopy, kinetic spectrophotometry, enzyme-linked immunosorbent assay), the results of which further strengthen the significance of these positive outcomes. […]

[3] = system: human neutrophil elastase (HNE); experiment: Phase 2 trial: sputum HNE protein levels; assay type: in vivo
Description: as §1, §2, §3

[4] = system: interleukin-8 (IL-8); experiment: Phase I trial: sputum interleukin-8 (IL-8) by ELISA; assay type: in vivo, human; conditions: 3 patients excluded (N = 15), 4 weeks
Description: 2. Lung inflammation, as reflected chiefly by (i) sputum counts in total live leukocytes and neutrophils (along with % neutrophils in sputum); (iii) plasma/sputum levels of elastase and interleukin-8 (IL-8) measured by spectrophotometry and ELISA Differences between basal and post-NAC values were studied by matched pair analysis, first, without distinguishing dose cohorts, to detect drug effects, and second, with dose cohorts as a factor, in order to detect potential dose effects.

[5] = system: blood neutrophils; experiment: Phase I trial: absolute numbers of neutrophils in blood; assay type: in vivo, human; conditions: dose cohort 2 (2.4 g/d), 4 weeks
Description: Indeed, cohort 2 was more severely affected with regards to several surrogate markers of disease prior to treatment (lower FEV1, all infected with P. aeruginosa, lower perceived weight gain).

[6] = system: interleukin-17 (IL-17); experiment: Phase 2 trial: plasma levels of interleukin-17 (IL-17); assay type: in vivo, human; conditions: NAC group compared to placebo group, P=0.02
Description: During week 0 through week12, exacerbations of sinus/lung disease affected 9/18 subjects. Subjects were less prone to exacerbations in the NAC than in the placebo group (2/9 vs. 7/9, respectively, P=0.04, Fisher's exact test). A key molecular correlate of exacerbations, namely plasma levels of the cytokine interleukin-17 (IL-17) also was decreased in the NAC group compared to the placebo-group (P=0.02), further confirming the anti-inflammatory effect of NAC in CF and corroborating its positive effect on acute attacks. IL-17 recently has been identified as a potent T-cell derived modulator of acute neutrophilic lung inflammation [Linden, A., et al. Neutrophils, interleukin-17A and lung disease. Eur. Respir. J. 25:159-172 (2008)]

[7] = Phase 2 placebo-controlled CF trial: safety, adverse events, adherence, CF QOL; assay type: in vivo, human
Description: Summary. […] This single-center trial consisted of a 12-week placebo-controlled section followed by a 12-week open label section, with oral NAC 0.9 g, taken three times daily. The statistical plan for the study was designed to assess the safety and efficacy of NAC versus placebo, at 0 week and 12-week timepoints (placebo-controlled section).
Serious adverse events and adverse events. […] As used herein, the term “DIOS”, which stands for “Distal Intestinal Obstruction Syndrome” refers to a condition unique to CF that occurs due to the accumulation of viscous mucous and fecal material in the terminal ileum, caecum and ascending colon, which may cause progressive symptoms of recurrent colicky abdominal pain, bloating, nausea and anorexia, and signs of small intestinal obstruction.

[8] = Phase 2 trial: FEV1 (% Pred), lung function; assay type: in vivo, human
Description: as §1
Intention-to-treat analysis of efficacy endpoints. Besides the necessary assessment of the safety of high-dose oral NAC in a placebo-controlled setting, this phase 2 trial also was designed to gain a better understanding of treatment efficacy with regards to improving inflammation, redox imbalance and lung function in CF, albeit within the limits inherent to a small study. In particular, the study looked to confirm the positive effects of high-dose oral NAC seen on sputum neutrophil count and HNE activity obtained in phase 1. The primary efficacy endpoint in this phase 2 study is sputum neutrophil count (based on the quantification of live neutrophils by microscopy, reflecting lung inflammation) and the four secondary efficacy endpoints are: (i) FEV1 (% Pred), reflecting lung function; (ii) blood neutrophil GSH, reflecting systemic redox imbalance; (iii) sputum HNE activity, reflecting lung inflammation, the current best predictor of CF lung disease; and (iv) whole blood GSH, reflecting systemic redox imbalance. Data on all other main efficacy endpoints (along with sputum HNE and IL-8 protein levels as additional indicators of inflammation) is presented in Table 3 (below) for all 9 subjects of the NAC group and 9 subjects in the placebo group included in the ITT analysis.

[9] = Phase I trial: perceived weight gain by CF QOL questionnaire; assay type: in vivo, human; conditions: 4 weeks
Description: (§4) With regards to efficacy, very significant positive effects of the treatment were documented. These positive effects (Table 2) included amelioration of: 1—Whole blood GSH (+11%, P=0.03), as measured by HPLC and blood neutrophil GSH (+17%, P=0.03), as measured by flow cytometry; 2—Live sputum leukocyte (−21%, P=0.03) and neutrophil (−25%, P=0.02) counts, as measured by microscopy and sputum elastase activity (−44%, P=0.02), as measured by kinetic spectrophotometry; and 3—Perceived weight gain (P=0.01), as measured by the CF QOL
Any sizeable change in lung function will likely require longer treatment and larger group size, which we look forward to implementing in the placebo-controlled phase of the study.

[10] = systematic review of randomized controlled trials; cited from earlier work
[11] = administered intravenously in dogs; cited from earlier work
[12] = system: sputum leukocytes and neutrophils; experiment: Phase I trial: sputum counts of live leukocytes and neutrophils by microscopy; assay type: in vivo, human; conditions: 4 weeks
Description: as §4
(§5) 2. Lung inflammation, as reflected chiefly by (i) sputum counts in total live leukocytes and neutrophils (along with % neutrophils in sputum); (iii) plasma/sputum levels of elastase and interleukin-8 (IL-8) measured by spectrophotometry and ELISA
(§6) Differences between basal and post-NAC values were studied by matched pair analysis, first, without distinguishing dose cohorts, to detect drug effects, and second, with dose cohorts as a factor, in order to detect potential dose effects.

[13] = 600 mg three times daily plus prednisone plus azothioprine, one year, vs standard therapy alone; cited from earlier work
[14] = 600 mg oral NAC per day, at least two exacerbations per year for 2 years; cited from earlier work
[15] = Phase 2 trial: exacerbations of sinus/lung disease, week 0 through week 12; assay type: in vivo, human; conditions: NAC group, placebo 7/9, P=0.04
Description: as §1
During week 0 through week12, exacerbations of sinus/lung disease affected 9/18 subjects. Subjects were less prone to exacerbations in the NAC than in the placebo group (2/9 vs. 7/9, respectively, P=0.04, Fisher's exact test). […]

[16] = system: elastase; experiment: Phase I trial: sputum elastase activity by kinetic spectrophotometry; assay type: in vivo, human; conditions: 4 weeks
Description: as §4, §5, §6

[17] = system: blood neutrophil GSH; experiment: Phase 2 trial: blood neutrophil intracellular GSH; assay type: in vivo, human; conditions: NAC group (n=9), ITT
Description: Summary. Based on the success of the phase I trial, the trial proceeded to phase II. This single-center trial consisted of a 12-week placebo-controlled section followed by a 12-week open label section, with oral NAC 0.9 g, taken three times daily. The statistical plan for the study was designed to assess the safety and efficacy of NAC versus placebo, at 0 week and 12-week timepoints (placebo-controlled section). Of the 24 subjects screened for eligibility, 21 were enrolled and randomized into NAC and placebo groups. One subject asked to be withdrawn from the prior to the 6 week time point because the medication regimen was too onerous. […] Two other subjects also were removed from participation in the study by the principal investigator due to poor adherence to the study protocol. […]
Intention-to-treat analysis of efficacy endpoints. […] The primary efficacy endpoint in this phase 2 study is sputum neutrophil count (based on the quantification of live neutrophils by microscopy, reflecting lung inflammation) and the four secondary efficacy endpoints are: (i) FEV1 (% Pred), reflecting lung function; (ii) blood neutrophil GSH, reflecting systemic redox imbalance; (iii) sputum HNE activity, reflecting lung inflammation, the current best predictor of CF lung disease; and (iv) whole blood GSH, reflecting systemic redox imbalance. […]

[18] = system: sputum neutrophils; experiment: Phase 2 trial: sputum neutrophil count (live neutrophils by microscopy); assay type: in vivo, human
Description: as §1
Intention-to-treat analysis of efficacy endpoints. Besides the necessary assessment of the safety of high-dose oral NAC in a placebo-controlled setting, this phase 2 trial also was designed to gain a better understanding of treatment efficacy with regards to improving inflammation, redox imbalance and lung function in CF, albeit within the limits inherent to a small study. In particular, the study looked to confirm the positive effects of high-dose oral NAC seen on sputum neutrophil count and HNE activity obtained in phase 1. The primary efficacy endpoint in this phase 2 study is sputum neutrophil count (based on the quantification of live neutrophils by microscopy, reflecting lung inflammation) and the four secondary efficacy endpoints are: (i) FEV1 (% Pred), reflecting lung function; (ii) blood neutrophil GSH, reflecting systemic redox imbalance; (iii) sputum HNE activity, reflecting lung inflammation, the current best predictor of CF lung disease; and (iv) whole blood GSH, reflecting systemic redox imbalance. […]

[19] = Phase I trial: lung function by spirometry; assay type: in vivo, human; conditions: short-term treatment (4 weeks)
Description: 3. Lung function, as measured by spirometry. Differences between basal and post-NAC values were studied by matched pair analysis, first, without distinguishing dose cohorts, to detect drug effects, and second, with dose cohorts as a factor, in order to detect potential dose effects. […] Any sizeable change in lung function will likely require longer treatment and larger group size, which we look forward to implementing in the placebo-controlled phase of the study.

[20] = system: interleukin-8; experiment: Phase 2 trial: sputum IL-8 protein levels; assay type: in vivo, human
Description: as §1, §2, §3

[21] = doses less than NAC; effects counter to those reported for NAC; cited from earlier work
[22] = NAC group (n=9), ITT, oral 0.9 g three times daily, week 12
[23] = NAC group (n=9), ITT, week 0 baseline
[24] = phase 2, wk 0 vs wk 12, not in placebo group
[25] = All (N = 18), basal vs post-NAC

CC(=O)N[C@@H](CS)C(=O)O [NAC, N-acetylcysteine]
Stability relative to cysteine [1]: about 10 times
Sputum HNE enzymatic activity (Log10), Value wk 12 [2, 22]: 3.16 ± 0.20 Log10
Sputum HNE enzymatic activity (Log10), Value wk 0 [2, 23]: 3.61 ± 0.15 Log10
Sputum HNE enzymatic activity, change within NAC group [2, 24]: significant decreases; also recorded: significantly decreased
Sputum HNE protein levels (Log10), Value wk 12 [3, 22]: −0.27 ± 0.12 Log10
Sputum HNE protein levels (Log10), Value wk 0 [3, 23]: 0.04 ± 0.13 Log10
Sputum HNE protein levels, change within NAC group [3, 24]: significant decreases; also recorded: significantly decreased
IL-8 in sputum, change [4]: −25%
Decrease in absolute numbers of neutrophils in blood [5]: 27%
Plasma levels of IL-17 [6]: decreased
Complete blood count and chemistry parameters ([7]; 12-week treatment, marginal changes in red blood cell distribution width and calcium, within normal range): not affected
Flatulence (CF QOL questionnaires) ([7]; NAC group, not in the placebo group, 12 weeks): significant reduction
Liver enzymes ([7]; phase 2, 12 weeks): No change
Tolerability ([7]; phase 2, oral 0.9 g three times daily, 12 weeks): very well tolerated; also recorded: lack of toxicity
Decline in pulmonary function tests (PFTs) ([8]; ITT analysis over the course of the phase 2 trial): no significant decline
Functional expiratory volume in 1s (% Pred), Value wk 12 [8, 22]: 75.6 ± 8.2 % Pred
Functional expiratory volume in 1s (% Pred), Value wk 0 [8, 23]: 73.7 ± 7.6 % Pred
FEV1 (% Pred), effect ([8]; phase 2, 12 weeks): No significant effect; also recorded: failed to detect any significant improvement
Perceived weight gain, change ([9]; 3 patients excluded (N = 15)): Increased
Perceived weight gain, change ([9]; All (N = 18), CF QOL): Increased
Early mortality in ARDS and ALI [10]: no effect
Pulmonary oxygen toxicity and ischemic and reperfusion damage [11]: protect
Live sputum leukocytes, change ([12]; 3 patients excluded (N = 15)): −28%
Live sputum neutrophils, change ([12]; 3 patients excluded (N = 15)): −32%
Neutrophils sputum (%), change ([12]; 3 patients excluded (N = 15)): −9%
Live sputum leukocytes, change [12, 25]: −21%
Live sputum neutrophils, change [12, 25]: −25%
Deterioration of vital capacity and DLCO in IPF [13]: slows the deterioration
Prevention of deterioration in lung function and exacerbations in COPD [14]: ineffective
Subjects with exacerbations of sinus/lung disease [15]: 2/9
Elastase in sputum, change ([16]; 3 patients excluded (N = 15)): −46%
Elastase in sputum, change [16, 25]: −44%
Blood neutrophil intracellular GSH, Value wk 12 ([17]; oral 0.9 g three times daily, week 12): 4.10 ± 0.10
Blood neutrophil intracellular GSH, Value wk 0 ([17]; week 0 baseline): 4.04 ± 0.08
Sputum neutrophil count (Log10), Value wk 12 [18, 22]: 1.24 ± 0.18 Log10
Sputum neutrophil count (Log10), Value wk 0 [18, 23]: 1.41 ± 0.17 Log10
Sputum neutrophil count, change within NAC group ([18]; phase 2, wk 0 vs wk 12, 0.9 g three times daily, not in placebo group): significant decreases; also recorded: significantly decreased
Pulmonary Function Testing results (spirometry) [19]: not changed; also recorded: none of the parameters measured by spirometry showed any change
Sputum IL-8 protein levels (Log10), Value wk 12 [20, 22]: 1.81 ± 0.18 Log10
Sputum IL-8 protein levels (Log10), Value wk 0 [20, 23]: 2.01 ± 0.12 Log10
Sputum IL-8 protein levels, change within NAC group [20, 24]: significant decreases; also recorded: significantly decreased

CC(=O)N[C@@H](CSSC[C@H](NC(C)=O)C(=O)O)C(=O)O [oxidized form of NAC, di-N-acetylcysteine]
Bioactive dose relative to NAC [21]: 10-100 fold

Reference: patent US20090192227A1, “N-Acetylcysteine Compositions and Methods for Treating Acute Exacerbations of Inflammatory Lung Disease” (priority 2005, published 2009)
